Source: US7339026B2, “mda-9 protein” (The Trustees of Columbia University In the City of New York, priority 1996, dated 2008)

Columns and labels:
Type in all cases: cell-based, human
[1] = tested on: HO-1; experiment: Growth of cell line with IFN-β and MEZ, alone and in combination (Coulter Counter cell numbers); details: for Cell numbers (average of triplicate plates ± S.D.) / percent of control growth: HO-1, 96-h growth, IFN-β 2000 U/ml, MEZ 10 ng/ml, IFN-β + MEZ 2000 U/ml + 10 ng/ml
Protocol: (§1) Cell Lines and Culture Conditions. H0-1 is a melanotic melanoma cell line produced from a metastatic inguinal lymph node lesion from a person and was used between passages 150 and 175 (13,21,22). FM516-SV is a normal human melanocyte culture immortalized by the SV40 T-antigen gene (23). Additional melanoma cell lines established from patients with metastatic melanomas that were evaluated, include LO-1, SH-1, WM239, MeWo, SKMEL-p53 wt (containing a wild-type p53 gene) and SKMEL-p53 mut (containing a mutant p53 gene) (13,21,24). Cultures were grown at 37° C. in a 95% air 5% C02-humidified incubator in Dulbecco's modified Eagle's medium (DMEM) supplemented with 5 or 10% fetal bovine serum (Hyclone, Utah). Cultures were maintained in the logarithmic phase of growth by subculturing (1:5 or 1:10) prior to confluence approximately every 4 to 7 d. For determining steady-state RNA expression, cultures were seeded at 1.5×10^6 cells per 10-cm tissue culture plate, and 24 h later the medium was changed without inducers or with IFN-β (2000 U/ml), MEZ (10 ng/ml) or IFN-β+MEZ (2000 U/ml+10 ng/ml). Total cytoplasmic RNA was isolated at various time points and analyzed for mda-9 and GAPDH expression.

[2] = tested on: SKMEL-p53 wt; experiment: as above; details: 96-h growth, IFN-β 2000 U/ml, MEZ 10 ng/ml, IFN-β + MEZ 2000 U/ml + 10 ng/ml
Protocol: as §1

[3] = tested on: WM239; experiment: as above; details: 96-h growth, IFN-β 2000 U/ml, MEZ 10 ng/ml, IFN-β + MEZ 2000 U/ml + 10 ng/ml
Protocol: as §1

[4] = tested on: SKMEL-p53 mut; experiment: as above; details: 96-h growth, IFN-β 2000 U/ml, MEZ 10 ng/ml, IFN-β + MEZ 2000 U/ml + 10 ng/ml
Protocol: as §1

[5] = tested on: SH-1; experiment: as above; details: 96-h growth, IFN-β 2000 U/ml, MEZ 10 ng/ml, IFN-β + MEZ 2000 U/ml + 10 ng/ml
Protocol: as §1

[6] = tested on: MeWo; experiment: as above; details: 96-h growth, IFN-β 2000 U/ml, MEZ 10 ng/ml, IFN-β + MEZ 2000 U/ml + 10 ng/ml
Protocol: as §1

[7] = tested on: FM516-SV; experiment: as above; details: 96-h growth, IFN-β 2000 U/ml, MEZ 10 ng/ml, IFN-β + MEZ 2000 U/ml + 10 ng/ml
Protocol: as §1

[8] = tested on: LO-1; experiment: as above; details: 96-h growth, IFN-β 2000 U/ml, MEZ 10 ng/ml, IFN-β + MEZ 2000 U/ml + 10 ng/ml
Protocol: as §1

[9] = tested on: mda-9 expression in H0-1 cells; experiment: mda-9 RNA expression by Northern blotting, equalized to GAPDH
Protocol: FIG. 1. Temporal expression of mda-9 in H0-1 cells exposed to IFN-β+MEZ. RNAs were isolated from untreated and H0-1 cells treated with IFN-β+MEZ (2000 U/ml+10 ng/ml) for 0.25, 0.5, 1, 2, 4, 8, 12 and 24 h. Ten micrograms of total cellular RNA were separated on 1% agarose gel, transferred to nylon membranes, sequentially hybridized with an mda-9 and then a GAPDH probe, and then exposed to autoradiography.
FIG. 4. Effect of interferons on mda-9 expression in H0-1 cells. H0-1 cells were grown for 96 h in the absence or presence of IFN-α (100 and 1000 U/ml), IFN-β (100 and 1000 U/ml) or IFN-γ (100 U/ml) and RNA was analyzed as described in FIG. 1.
FIGS. 9A-9B. Temporal and dose kinetics of IFN-γ enhancement in mda-9 expression in H0-1 human melanoma cells. H0-1 cells were treated for the indicated time (FIG. 9A) and dose (FIG. 9B) of IFN-γ, RNA was then isolated and analyzed by Northern blotting. […] Replicate samples varied by ≦15%.
as §1
RNA Isolation, Northern Blotting and Southern Blotting of Genomic DNAs. Total cellular RNA was isolated by the guanidinium/phenol procedure and Northern blotting was performed as described (30-32). Ten μg of RNA were denatured with glyoxal/dimethyl sulfoxide (DMSO), electrophoresed on 1.0% agarose gels, transferred to nylon membranes and hybridized to a ^32P-labeled mda-9 probe and then after stripping the membranes were hybridized to a ^32P-labeled rat GAPDH probe (33) as described previously (30-32). […] RNA blots were quantitated by densitometric analysis using a Molecular Dynamics densitometer (Sunnyvale, Calif.) (34). […]

[10] = tested on: WM35; experiment: Effect of recombinant immune interferon (IFN-γ) on growth (cell numbers); details: 96 hr
Source text: (§2) Cell lines and culture conditions. H0-1 is a melanotic melanoma cell line produced from a metastatic inguinal node lesion from a person and was used between passages 170 and 200 (Giovanella et al., 1976; Huberman et al., 1979; Fisher et al., 1985). C8161 is a highly metastatic amelanotic human melanoma cell line derived from an abdominal wall metastasis (Welch et al., 1991). FM516-SV is a normal human melanocyte culture immortalized by the SV40 T-antigen gene (Melber et al., 1989). The WM35 cell line was isolated from a patient with a radial growth phase primary melanoma (Herlyn, 1990). The WM278 cell line is from a patient with an early vertical growth phase primary melanoma (Herlyn, 1990). Cultures were grown at 37° C. in a 95% air 5% C02-humidified incubator in Dulbecco's modified Eagle's medium (DMEM) supplemented with 5 or 10% fetal bovine serum. Cultures were maintained in the logarithmic phase of growth by subculturing (1:5 or 1:10) prior to confluence approximately every 4 to 7 D.

[11] = tested on: H0-1; experiment: as above; details: 96 hr
Source text: as §2

[12] = tested on: C8161; experiment: as above; details: 96 hr
Source text: as §2

[13] = tested on: WM278; experiment: as above; details: 96 hr
Source text: as §2

[14] = tested on: FM516-SV; experiment: as above; details: 96 hr
Source text: as §2

[15] = tested on: H0-1 cells; experiment: Effect of interferons on growth of H0-1 cells (FIG. 3); details: 4 d treatment with 100 U/ml interferon
Protocol: FIG. 3. […] Results are the average cell number ±S.D. from the mean.
Experiments were performed to determine if a relationship exists between growth suppression and reduced mda-9 expression. To test this connection, the effect of interferon and MEZ treatment on proliferation and mda-9 expression in human melanoma cells was determined.

[16] = tested on: mda-9 expression in FM516-SV cells; experiment: mda-9 RNA expression by Northern blotting, densitometer comparison with GAPDH
Protocol: FIG. 2. Effects of IFN-β+MEZ on mda-9 expression in human melanoma cells and an SV40-immortalized human melanocyte cell line. The indicated cell line was grown in the presence or absence of IFN-β+MEZ (2000 U/ml+10 ng/ml) for 96 h and RNA was analyzed as described in FIG. 1.
as §1, with “Cultures were maintained in the logarithmic phase of growth by subculturing (1:5 or 1:10) prior to confluence approximately every 4 to 7 d. For determining steady-state RNA expression, cultures were seeded at 1.5×10^6 cells per 10-cm tissue culture plate, and 24 h later the medium was changed without inducers or with IFN-β (2000 U/ml), MEZ (10 ng/ml) or IFN-β+MEZ (2000 U/ml+10 ng/ml).” left out
RNA Isolation, Northern Blotting and Southern Blotting of Genomic DNAs. […] RNA blots were quantitated by densitometric analysis using a Molecular Dynamics densitometer (Sunnyvale, Calif.) (34). […]

[17] = H0-1 cells grown for 4 days in 10 ng/ml of MEZ

Molecule: C=C(C)[C@@]12O[C@@]3(c4ccccc4)O[C@@H]1[C@@H]1[C@@H]4O[C@]4(CO)[C@@H](O)[C@]4(O)C(=O)C(C)=C[C@H]4[C@@]1(O3)[C@H](C)[C@H]2OC(=O)/C=C/C=C/c1ccccc1 [MEZ, mezerein, reference compound]
- growth reduction [1, 17]: ~74%
- Cell numbers (average of triplicate plates ± S.D.) [1]: 16.8 ± 1.0
- percent of control growth [1]: 26%
- Cell numbers (average of triplicate plates ± S.D.) [2]: 3.6 ± 0.7
- percent of control growth [2]: 21%
- Cell numbers (average of triplicate plates ± S.D.) [3]: 19.7 ± 1.2
- percent of control growth [3]: 40%
- Cell numbers (average of triplicate plates ± S.D.) [4]: 21.5 ± 4.3
- percent of control growth [4]: 60%
- Cell numbers (average of triplicate plates ± S.D.) [5]: 14.1 ± 0.3
- percent of control growth [5]: 57%
- Cell numbers (average of triplicate plates ± S.D.) [6]: 15.4 ± 1.9
- percent of control growth [6]: 46%
- Cell numbers (average of triplicate plates ± S.D.) [7]: 12.7 ± 1.8
- percent of control growth [7]: 60%
- Cell numbers (average of triplicate plates ± S.D.) [8]: 4.7 ± 0.4
- percent of control growth [8]: 28%
- mda-9 expression [9, 17]: unaffected

Molecule: IFN-γ: Recombinant human IFN-γ (type II, immune interferon)
- average cell number ± S.D. ([10]; 1 U/ml of IFN-γ): 84.8 ± 6.7
- percent of cell number reduction versus control ([10]; 1 U/ml of IFN-γ): 2%
- average cell number ± S.D. ([10]; 10 U/ml of IFN-γ): 62.7 ± 4.3
- percent of cell number reduction versus control ([10]; 10 U/ml of IFN-γ): 28%
- average cell number ± S.D. ([10]; 100 U/ml of IFN-γ): 28.2 ± 1.7
- percent of cell number reduction versus control ([10]; 100 U/ml of IFN-γ): 67%
- average cell number ± S.D. ([11]; 1 U/ml of IFN-γ): 15.8 ± 0.5
- percent of cell number reduction versus control ([11]; 1 U/ml of IFN-γ): 22%
- average cell number ± S.D. ([11]; 10 U/ml of IFN-γ): 15.4 ± 0.3
- percent of cell number reduction versus control ([11]; 10 U/ml of IFN-γ): 24%
- average cell number ± S.D. ([11]; 100 U/ml of IFN-γ): 11.5 ± 1.3
- percent of cell number reduction versus control ([11]; 100 U/ml of IFN-γ): 44%
- average cell number ± S.D. ([12]; 1 U/ml of IFN-γ): 24.4 ± 0.8
- percent of cell number reduction versus control ([12]; 1 U/ml of IFN-γ): 30%
- average cell number ± S.D. ([12]; 10 U/ml of IFN-γ): 25.1 ± 0.8
- percent of cell number reduction versus control ([12]; 10 U/ml of IFN-γ): 28%
- average cell number ± S.D. ([12]; 100 U/ml of IFN-γ): 22.2 ± 1.4
- percent of cell number reduction versus control ([12]; 100 U/ml of IFN-γ): 36%
- average cell number ± S.D. ([13]; 1 U/ml of IFN-γ): 14.9 ± 0.8
- percent of cell number reduction versus control ([13]; 1 U/ml of IFN-γ): 33%
- average cell number ± S.D. ([13]; 10 U/ml of IFN-γ): 12.7 ± 1.0
- percent of cell number reduction versus control ([13]; 10 U/ml of IFN-γ): 42%
- average cell number ± S.D. ([13]; 100 U/ml of IFN-γ): 12.5 ± 0.6
- percent of cell number reduction versus control ([13]; 100 U/ml of IFN-γ): 44%
- average cell number ± S.D. ([14]; 1 U/ml of IFN-γ): 16.8 ± 0.5
- percent of cell number reduction versus control ([14]; 1 U/ml of IFN-γ): 19%
- average cell number ± S.D. ([14]; 10 U/ml of IFN-γ): 9.8 ± 0.6
- percent of cell number reduction versus control ([14]; 10 U/ml of IFN-γ): 52%
- average cell number ± S.D. ([14]; 100 U/ml of IFN-γ): 5.1 ± 0.3
- percent of cell number reduction versus control ([14]; 100 U/ml of IFN-γ): 75%
- reduction of H0-1 growth [15]: ~43%
- time at which enhanced mda-9 expression is apparent ([9]; H0-1, 100 U/ml of recombinant human IFN-γ): ≤ 2 h
- dose giving maximum enhancing effects on mda-9 expression ([9]; H0-1, IFN-γ dose-response): 10 U/ml
- low dose at which mda-9 expression is elevated ([9]; H0-1, IFN-γ dose-response): 0.1 U/ml
- dose giving maximum enhancing effects on mda-9 expression ([16]; IFN-γ dose-response): 10 U/ml
- low dose at which mda-9 expression is elevated ([16]; IFN-γ dose-response (data not shown)): 0.1 U/ml

B1: IFN-β: Recombinant human IFN-β, with a serine substituted for a cysteine at position 17 of the molecule (protein, UniProt P01574 22-187, looked up, variant C17S)
Interferon beta: MSYNLLGFLQRSSNFQSQKLLWQLNGRLEYCLKDRMNFDIPEEIKQLQQFQKEDAALTIYEMLQNIFAIFRQDSSSTGWNETIVENLLANVYHQINHLKTVLEEKLEKEDFTRGKLMSSLHLKRYYGRILHYLKAKEYSHCAWTIVRVEILRNFYFINRLTGYLRN
- Cell numbers (average of triplicate plates ± S.D.) [1]: 14.0 ± 2.6
- percent of control growth [1]: (22) %
- Cell numbers (average of triplicate plates ± S.D.) [2]: 9.1 ± 0.3
- percent of control growth [2]: (54) %
- Cell numbers (average of triplicate plates ± S.D.) [3]: 9.5 ± 0.9
- percent of control growth [3]: (19) %
- Cell numbers (average of triplicate plates ± S.D.) [4]: 39.5 ± 7.5
- percent of control growth [4]: (109) %
- Cell numbers (average of triplicate plates ± S.D.) [5]: 14.3 ± 1.5
- percent of control growth [5]: (57) %
- Cell numbers (average of triplicate plates ± S.D.) [6]: 15.6 ± 1.9
- percent of control growth [6]: (46) %
- Cell numbers (average of triplicate plates ± S.D.) [7]: 7.8 ± 1.0
- percent of control growth [7]: (37) %
- Cell numbers (average of triplicate plates ± S.D.) [8]: 1.3 ± 0.3
- percent of control growth [8]: (8) %
- reduction of H0-1 growth [15]: ~70%
